# Results published in patent US8697747B2, “Enhancing coagulation or reducing fibrinolysis” (THe UAB Research Foundation, priority 2009, dated 2014).
# Legend:
# [1] = aqueous solution pH=7.4, 37° C.; cited from earlier work
# [2] = system: Factor XIII (FXIII) deficient plasma; test: Thrombelastographic coagulation kinetics, Celite-activated FXIII deficient plasma; type: biochemical, human
# Procedure: Pooled normal plasma (George King Bio-Medical, Overland Park, Kans.) anticoagulated with sodium citrate was utilized for experimentation. […] Factor XIII (FXIII) deficient plasma anticoagulated with sodium citrate was also obtained from George King Bio-Medical (Overland Park, Kans.).
# Plasma Sample Composition. The final volume for all subsequently described plasma sample mixtures was 359.4 μL. […] (Motterlini et al., Expert Opin Investig Drugs, 14:1305-1318 (2005), which is incorporated by reference herein in its entirety).
# Clot Lifespan Model Analyses. Plasma sample mixtures were placed in a disposable cup in a computer-controlled THROMBELASTOGRAPH® hemostasis system (Model 5000, Haemoscope Corp., Niles, Ill.), with addition of CaCl2 as the last step to initiate clotting. Data were collected for 15 minutes, as normal plasma completes thrombus formation within this interval in this system (Dong et al., Eur J Pharmacol 590:99-104 (2008)).
# Statistical Analyses. Data are presented as mean±SD. All conditions described were represented with n=8 experiments, as n=6-8 typically provides statistical power>0.8 in similar analyses (Nielsen et al., Acta Anaesthesiol Scand 49:222-231 (2005) and Nielsen et al., Blood Coagul Fibrinolysis 17:75-81 (2006)). Analyses of the effects of CORM-2 and iCORM-2 on thrombelastographic variables were conducted using one way analysis of variance with the Holm-Sidak test used for post hoc comparisons. Graphical representation of the data was generated with commercially available software (Origin 7.5, OriginLab Corp., Northampton, Mass.). A P value of ≦0.05 was considered significant.
# pooled normal plasma = test: Dilution-response thrombelastography in plasma diluted with NS or VOL (no tPA); type: biochemical, human
# Excerpt: Plasma and volume expanders. Pooled normal plasma (George King Bio-Medical, Overland Park, Kans.) anticoagulated with sodium citrate was utilized for experimentation. […] The volume expanders tested were 0.9% NaCl (Abbott Laboratories, North Chicago, Ill.; also designated as NS) and 6% hydroxylethyl starch (HES) in 0.9% NaCl (VOLUVEN®, average molecular weight 130 kDa, 0.4 degree of substitution, C2:C6 ratio of substitution 11.2; Fresenius Kabi, Bad Homburg, Germany; also referred to as VOL).
# Plasma sample composition of dilution-response experiments. The final volume for all subsequently described plasma sample mixtures was 359.6 μL. Sample composition consisted of 326 μL of plasma/volume expander, 10 μL of tissue factor reagent (0.1% final concentration in dH2O; Instrumentation Laboratory, Lexington, Mass.), 3.6 μL of dimethyl sulfoxide (DMSO) or DMSO with CORM-2 (100 μM final concentration; Sigma-Aldrich, St. Louis, Mo.), and 20 μL of 200 mM CaCl2. Tissue factor stock was kept on ice prior to use and was remade every two hours. […] DMSO was added to dry CORM-2 just prior to placement into the plasma mixture. Plasma was diluted 0%, 20%, 30%, 40% or 50% with NS or VOL (n=4 per condition).
# Clot Lifespan Model (CLSM) Analyses. Plasma sample mixtures were placed in a disposable cup in a computer-controlled THROMBELASTOGRAPH® hemostasis system (Model 5000, Haemoscope Corp., Niles, Ill.), with addition of CaCl2 as the last step to initiate clotting. In the first series of experiments, no tPA was added, so data were collected until clot strength (maximum amplitude) was stable. In the second series of experiments which in tPA was added, data were collected until clot lysis time occurred. […] Additional elastic modulus-based parameters were determined and the nomenclature used to describe these phenomena is as follows: Time to maximum rate of thrombus generation (TMRTG): This is the time interval (sec) observed prior to maximum speed of clot growth. Maximum rate of thrombus generation (MRTG): This is the maximum velocity of clot growth observed (dynes/cm^2/sec). Total Thrombus Generation (TTG): This is the total area under the velocity curve during clot growth (dynes/cm^2), representing the amount of clot strength generated during clot growth. Time to maximum rate of lysis (TMRL): This is the time interval (sec) measured from the time of maximum strength to the time when the velocity of clot disintegration is maximal. Maximum Rate of Lysis (MRL): This is the maximum velocity of clot disintegration observed (−dynes/cm^2/sec). Area of Clot Lysis (ACL): This is the total area under the velocity curve during clot disintegration (−dynes/cm^2), representing the amount of clot strength lost during clot disintegration. As this model involves complete fibrinolysis, TTG is equivalent to ACL, so ACL was not presented as it provides no additional information.
# Statistical Analyses. Data obtained from pooled normal plasma not exposed to tPA were graphically represented with commercially available software (SigmaPlot 11.0, Systat Software, Inc., San Jose, Calif.), and kinetic modeling of thrombelastographic data performed with the same software. Analyses of the effects of hemodilution and CORM-2 on CLSM variables obtained from pooled normal plasma were conducted using Kruskal-Wallis one way analysis of variance with Student-Newman-Keuls post-hoc test. […] These analyses were conducted with the same commercially available software (SigmaPlot 11.0). A P value of <0.05 was considered significant.
# [3] = 100 μM, Celite-activated FXIII deficient plasma, mean ± SD, n=8
# [4] = 20% dilution with VOL + 100 μM CORM-2, no tPA
# [5] = 30% dilution with VOL + 100 μM CORM-2, no tPA
# [6] = 40% dilution with VOL + 100 μM CORM-2, no tPA
# [7] = 50% dilution with VOL + 100 μM CORM-2, no tPA
# [8] = undiluted samples, no tPA, 100 μM CORM-2
smiles,measurement,setting,value
"[C-]#[O+].[C-]#[O+].[C-]#[O+].[C-]#[O+].[C-]#[O+].[C-]#[O+].[Cl][Ru][Cl].[Cl][Ru][Cl] [CORM-2, tricarbonyldichlororuthenium (II) dimer]",CO released from every mole of CORM-2,[1],0.75 mol
same,MRTG (maximum rate of thrombus generation),[2]; [3],9.1 ± 1.2 dynes/cm^2/sec
same,TMRTG (time to maximum rate of thrombus generation),[2]; [3],296 ± 13 s
same,TTG (total thrombus generation),[2]; [3],163 ± 21 dynes/cm^2
same,equivalent replacement of FXIII activity with regard to enhancement of coagulation kinetics,[2]; addition to FXIII-deficient plasma,100%
same,"MRTG, % of undiluted samples",pooled normal plasma; [4],93%
same,"TTG, % of undiluted samples",pooled normal plasma; [4],76%
same,"MRTG, % of undiluted samples",pooled normal plasma; [5],67%
same,"TTG, % of undiluted samples",pooled normal plasma; [5],50%
same,"MRTG, % of undiluted samples",pooled normal plasma; [6],60%
same,"TTG, % of undiluted samples",pooled normal plasma; [6],45%
same,"MRTG, % of undiluted samples",pooled normal plasma; [7],22%
same,"TTG, % of undiluted samples",pooled normal plasma; [7],17%
same,increase in MRTG with CORM-2 exposure,"pooled normal plasma; samples diluted 50% with NS, no tPA, 100 μM CORM-2",12%
same,MRTG greater than matched diluted samples not exposed to CORM-2,"pooled normal plasma; samples diluted with NS (except 50%), no tPA, 100 μM CORM-2",40-50%
same,increase in MRTG,pooled normal plasma; [8],75%
same,increase in TTG,pooled normal plasma; [8],59%
